Here are results for three molecules from ChEMBL document CHEMBL1201862, “PubChem BioAssay data set” (2004).

Activity calls are given as the source filed them. Bounds are passed on as bounds.

Common to all, as to type: functional
Assay [1] concerns the target Tyrosine-protein kinase Fyn (Homo sapiens, UniProt P06241).
Assay [2] has as its target Cyclin-dependent kinase 8 (Homo sapiens, UniProt P49336). The experiment in a line: Navigating the Kinome. Panel member name: CDK8.
Assay [3] has as its target Mitogen-activated protein kinase 8 (Homo sapiens, UniProt P45983).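 Note: value comes from one member of a kinome-wide kinase profiling panel.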
Assay [4] has as its target T1, Serine/threonine-protein kinase Chk1 (Homo sapiens, UniProt O14757).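 Note: measured as one member of a kinome-wide kinase profiling panel.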
T1 sequence (O14757 whole entry): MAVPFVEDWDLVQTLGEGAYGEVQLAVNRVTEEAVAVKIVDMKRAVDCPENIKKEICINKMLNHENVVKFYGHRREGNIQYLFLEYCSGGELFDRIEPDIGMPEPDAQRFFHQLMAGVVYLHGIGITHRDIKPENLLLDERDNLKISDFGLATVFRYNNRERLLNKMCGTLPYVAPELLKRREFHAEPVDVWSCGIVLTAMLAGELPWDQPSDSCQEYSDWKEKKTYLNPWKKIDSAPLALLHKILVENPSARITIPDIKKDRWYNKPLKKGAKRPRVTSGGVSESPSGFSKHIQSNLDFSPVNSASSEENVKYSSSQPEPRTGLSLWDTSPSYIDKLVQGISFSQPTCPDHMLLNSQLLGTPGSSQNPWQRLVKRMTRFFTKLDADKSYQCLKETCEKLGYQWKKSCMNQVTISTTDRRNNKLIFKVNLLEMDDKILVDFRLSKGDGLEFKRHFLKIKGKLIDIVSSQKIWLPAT

Assay [5] addresses Dual specificity tyrosine-phosphorylation-regulated kinase 1B (Homo sapiens, UniProt Q9Y463). The experiment in a line: Navigating the Kinome. Panel member name: DYRK1B.
Assay [6] deals with Serine/threonine-protein kinase PAK 4 (Homo sapiens, UniProt O96013).
Chain of Serine/threonine-protein kinase PAK 4 (O96013 whole entry): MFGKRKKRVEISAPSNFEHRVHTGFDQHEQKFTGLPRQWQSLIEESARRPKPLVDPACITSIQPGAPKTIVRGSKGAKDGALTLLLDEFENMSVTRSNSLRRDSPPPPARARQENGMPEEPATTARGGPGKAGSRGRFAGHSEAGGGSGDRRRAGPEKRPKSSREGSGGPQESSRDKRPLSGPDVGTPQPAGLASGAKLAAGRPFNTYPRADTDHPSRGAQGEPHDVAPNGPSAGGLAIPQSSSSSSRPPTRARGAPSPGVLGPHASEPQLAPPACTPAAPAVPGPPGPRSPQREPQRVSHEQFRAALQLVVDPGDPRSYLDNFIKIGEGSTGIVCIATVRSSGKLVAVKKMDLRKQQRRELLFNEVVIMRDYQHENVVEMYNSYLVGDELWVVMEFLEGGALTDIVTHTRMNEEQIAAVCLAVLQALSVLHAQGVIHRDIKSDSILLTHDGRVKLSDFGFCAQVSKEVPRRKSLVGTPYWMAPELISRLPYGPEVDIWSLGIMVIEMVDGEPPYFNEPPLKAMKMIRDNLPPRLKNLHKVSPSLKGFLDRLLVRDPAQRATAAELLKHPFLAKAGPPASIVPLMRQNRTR
Assay [7] addresses T2, Serine/threonine-protein kinase D3 (Homo sapiens, UniProt O94806).
T2 sequence (O94806 whole entry): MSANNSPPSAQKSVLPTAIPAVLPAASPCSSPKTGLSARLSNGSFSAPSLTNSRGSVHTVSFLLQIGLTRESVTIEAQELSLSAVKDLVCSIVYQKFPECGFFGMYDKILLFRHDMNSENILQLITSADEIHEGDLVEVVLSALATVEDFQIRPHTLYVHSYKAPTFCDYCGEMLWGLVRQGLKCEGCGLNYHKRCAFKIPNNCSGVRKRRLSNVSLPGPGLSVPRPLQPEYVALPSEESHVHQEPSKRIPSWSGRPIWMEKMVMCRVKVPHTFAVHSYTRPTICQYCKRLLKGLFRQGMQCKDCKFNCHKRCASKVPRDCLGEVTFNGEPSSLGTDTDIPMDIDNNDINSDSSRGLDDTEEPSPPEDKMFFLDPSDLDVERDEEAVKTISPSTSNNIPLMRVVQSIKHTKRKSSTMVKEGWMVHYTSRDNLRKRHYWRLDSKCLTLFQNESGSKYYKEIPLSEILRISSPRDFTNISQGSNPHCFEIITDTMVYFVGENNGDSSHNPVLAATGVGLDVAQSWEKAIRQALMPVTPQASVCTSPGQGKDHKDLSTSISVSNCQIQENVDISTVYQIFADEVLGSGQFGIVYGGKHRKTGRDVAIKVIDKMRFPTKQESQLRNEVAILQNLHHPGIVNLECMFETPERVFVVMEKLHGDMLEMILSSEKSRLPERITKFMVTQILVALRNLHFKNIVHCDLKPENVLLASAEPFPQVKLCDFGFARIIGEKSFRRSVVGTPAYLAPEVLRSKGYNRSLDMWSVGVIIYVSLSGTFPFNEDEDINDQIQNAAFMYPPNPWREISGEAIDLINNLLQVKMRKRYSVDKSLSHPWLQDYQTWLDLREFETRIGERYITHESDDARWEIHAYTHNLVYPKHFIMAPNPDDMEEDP

In assay [8] the target is T3, Tyrosine-protein kinase JAK3 (Homo sapiens, UniProt P52333).
T3 sequence (P52333 whole entry): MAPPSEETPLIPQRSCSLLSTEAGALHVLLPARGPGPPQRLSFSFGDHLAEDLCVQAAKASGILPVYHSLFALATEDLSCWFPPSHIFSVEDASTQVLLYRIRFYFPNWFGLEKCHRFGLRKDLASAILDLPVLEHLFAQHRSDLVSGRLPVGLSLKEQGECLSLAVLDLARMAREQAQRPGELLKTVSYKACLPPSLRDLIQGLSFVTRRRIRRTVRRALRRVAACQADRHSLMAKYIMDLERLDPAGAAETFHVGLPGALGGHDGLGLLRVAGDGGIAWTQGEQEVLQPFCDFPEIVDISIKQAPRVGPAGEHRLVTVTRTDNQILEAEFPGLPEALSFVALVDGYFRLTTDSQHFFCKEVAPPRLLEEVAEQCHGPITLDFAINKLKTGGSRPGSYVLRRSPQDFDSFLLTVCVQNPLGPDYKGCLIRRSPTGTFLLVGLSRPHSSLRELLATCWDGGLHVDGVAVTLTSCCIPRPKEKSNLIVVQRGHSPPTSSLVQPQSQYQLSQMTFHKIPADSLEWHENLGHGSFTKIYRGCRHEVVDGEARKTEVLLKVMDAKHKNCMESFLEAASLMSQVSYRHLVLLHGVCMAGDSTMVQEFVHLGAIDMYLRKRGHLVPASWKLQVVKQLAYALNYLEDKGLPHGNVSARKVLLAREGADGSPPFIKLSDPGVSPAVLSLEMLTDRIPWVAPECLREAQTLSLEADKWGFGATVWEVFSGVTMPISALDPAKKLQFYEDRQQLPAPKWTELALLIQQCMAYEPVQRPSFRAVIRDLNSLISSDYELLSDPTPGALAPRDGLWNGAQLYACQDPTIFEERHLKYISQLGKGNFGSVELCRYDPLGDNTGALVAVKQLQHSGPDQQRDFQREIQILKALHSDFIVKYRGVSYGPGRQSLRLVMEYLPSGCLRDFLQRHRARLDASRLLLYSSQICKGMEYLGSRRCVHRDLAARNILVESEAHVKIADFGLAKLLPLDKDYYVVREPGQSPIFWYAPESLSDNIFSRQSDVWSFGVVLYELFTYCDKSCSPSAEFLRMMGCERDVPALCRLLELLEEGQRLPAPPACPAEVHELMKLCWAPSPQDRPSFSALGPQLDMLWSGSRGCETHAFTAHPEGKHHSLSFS

In assay [9] the target is ALK tyrosine kinase receptor (Homo sapiens, UniProt Q9UM73).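 Note: ALK tested as one member of a kinase panel screen.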
Chain of ALK tyrosine kinase receptor (Q9UM73 whole entry): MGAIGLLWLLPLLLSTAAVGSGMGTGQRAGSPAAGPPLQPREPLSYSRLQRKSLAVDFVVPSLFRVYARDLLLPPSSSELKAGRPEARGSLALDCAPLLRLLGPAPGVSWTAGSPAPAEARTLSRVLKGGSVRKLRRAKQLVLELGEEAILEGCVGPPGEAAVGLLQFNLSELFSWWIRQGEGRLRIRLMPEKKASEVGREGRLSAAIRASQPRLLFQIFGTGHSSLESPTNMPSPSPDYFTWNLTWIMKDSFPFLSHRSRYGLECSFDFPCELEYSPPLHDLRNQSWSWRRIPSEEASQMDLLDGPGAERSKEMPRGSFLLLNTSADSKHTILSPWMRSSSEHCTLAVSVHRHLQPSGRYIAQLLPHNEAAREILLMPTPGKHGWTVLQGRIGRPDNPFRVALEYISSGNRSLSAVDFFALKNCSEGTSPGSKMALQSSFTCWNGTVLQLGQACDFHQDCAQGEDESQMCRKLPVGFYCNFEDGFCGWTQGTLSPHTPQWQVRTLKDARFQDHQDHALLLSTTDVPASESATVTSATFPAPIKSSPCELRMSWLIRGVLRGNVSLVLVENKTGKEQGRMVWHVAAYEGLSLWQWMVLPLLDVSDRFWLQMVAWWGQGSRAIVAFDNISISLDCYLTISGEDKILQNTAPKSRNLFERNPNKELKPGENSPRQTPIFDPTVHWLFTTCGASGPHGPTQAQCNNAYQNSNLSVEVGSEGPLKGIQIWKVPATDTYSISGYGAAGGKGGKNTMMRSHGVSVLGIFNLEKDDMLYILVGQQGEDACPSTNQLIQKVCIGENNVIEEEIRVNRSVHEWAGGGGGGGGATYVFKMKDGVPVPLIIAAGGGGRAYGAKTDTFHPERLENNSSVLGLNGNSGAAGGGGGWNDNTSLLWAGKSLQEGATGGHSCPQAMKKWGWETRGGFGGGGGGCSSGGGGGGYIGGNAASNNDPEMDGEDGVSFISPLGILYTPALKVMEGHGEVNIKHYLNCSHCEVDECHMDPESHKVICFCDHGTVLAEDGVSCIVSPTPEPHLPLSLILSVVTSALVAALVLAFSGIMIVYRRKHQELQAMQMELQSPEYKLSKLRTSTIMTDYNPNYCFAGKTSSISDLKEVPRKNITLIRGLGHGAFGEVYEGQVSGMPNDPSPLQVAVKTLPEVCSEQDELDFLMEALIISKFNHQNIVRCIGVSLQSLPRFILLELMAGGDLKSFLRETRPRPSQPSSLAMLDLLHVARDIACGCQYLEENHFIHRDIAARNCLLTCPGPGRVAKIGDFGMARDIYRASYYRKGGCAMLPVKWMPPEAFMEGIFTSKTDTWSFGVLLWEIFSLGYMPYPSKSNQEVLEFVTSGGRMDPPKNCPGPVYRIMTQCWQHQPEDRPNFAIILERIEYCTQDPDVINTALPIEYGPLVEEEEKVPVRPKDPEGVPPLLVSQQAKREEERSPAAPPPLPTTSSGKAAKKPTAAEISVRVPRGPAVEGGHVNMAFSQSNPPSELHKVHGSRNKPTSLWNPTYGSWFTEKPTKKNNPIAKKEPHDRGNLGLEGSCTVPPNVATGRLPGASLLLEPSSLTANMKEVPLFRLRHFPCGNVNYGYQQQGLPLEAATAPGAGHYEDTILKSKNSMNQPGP
In assay [10] the target is Dual specificity protein kinase CLK4 (Homo sapiens, UniProt Q9HAZ1).
Chain of Dual specificity protein kinase CLK4 (Q9HAZ1 whole entry): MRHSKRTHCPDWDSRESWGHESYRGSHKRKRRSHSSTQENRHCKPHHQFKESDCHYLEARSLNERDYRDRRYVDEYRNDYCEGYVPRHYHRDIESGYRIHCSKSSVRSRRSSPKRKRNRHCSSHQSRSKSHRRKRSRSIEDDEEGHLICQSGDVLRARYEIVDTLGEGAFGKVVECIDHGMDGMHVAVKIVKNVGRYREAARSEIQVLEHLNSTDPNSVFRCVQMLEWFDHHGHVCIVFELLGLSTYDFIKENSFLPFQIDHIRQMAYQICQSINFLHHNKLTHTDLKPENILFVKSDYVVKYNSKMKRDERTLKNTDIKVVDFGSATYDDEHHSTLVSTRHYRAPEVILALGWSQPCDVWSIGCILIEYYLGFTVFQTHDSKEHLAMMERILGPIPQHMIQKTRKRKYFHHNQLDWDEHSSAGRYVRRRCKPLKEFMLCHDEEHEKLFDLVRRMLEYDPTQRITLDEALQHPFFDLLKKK

Chain of Mitogen-activated protein kinase 8 (P45983 whole entry): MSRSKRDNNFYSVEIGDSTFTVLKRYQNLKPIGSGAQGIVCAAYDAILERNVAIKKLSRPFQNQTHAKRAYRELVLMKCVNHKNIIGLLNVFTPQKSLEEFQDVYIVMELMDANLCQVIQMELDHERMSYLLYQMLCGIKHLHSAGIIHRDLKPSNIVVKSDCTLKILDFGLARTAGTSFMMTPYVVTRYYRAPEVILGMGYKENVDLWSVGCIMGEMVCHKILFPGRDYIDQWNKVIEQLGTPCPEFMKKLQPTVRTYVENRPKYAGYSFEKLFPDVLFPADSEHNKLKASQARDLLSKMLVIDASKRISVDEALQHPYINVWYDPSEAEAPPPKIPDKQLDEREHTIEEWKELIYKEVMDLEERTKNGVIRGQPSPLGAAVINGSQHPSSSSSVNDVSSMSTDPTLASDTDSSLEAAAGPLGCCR
Chain of Tyrosine-protein kinase Fyn (P06241 whole entry): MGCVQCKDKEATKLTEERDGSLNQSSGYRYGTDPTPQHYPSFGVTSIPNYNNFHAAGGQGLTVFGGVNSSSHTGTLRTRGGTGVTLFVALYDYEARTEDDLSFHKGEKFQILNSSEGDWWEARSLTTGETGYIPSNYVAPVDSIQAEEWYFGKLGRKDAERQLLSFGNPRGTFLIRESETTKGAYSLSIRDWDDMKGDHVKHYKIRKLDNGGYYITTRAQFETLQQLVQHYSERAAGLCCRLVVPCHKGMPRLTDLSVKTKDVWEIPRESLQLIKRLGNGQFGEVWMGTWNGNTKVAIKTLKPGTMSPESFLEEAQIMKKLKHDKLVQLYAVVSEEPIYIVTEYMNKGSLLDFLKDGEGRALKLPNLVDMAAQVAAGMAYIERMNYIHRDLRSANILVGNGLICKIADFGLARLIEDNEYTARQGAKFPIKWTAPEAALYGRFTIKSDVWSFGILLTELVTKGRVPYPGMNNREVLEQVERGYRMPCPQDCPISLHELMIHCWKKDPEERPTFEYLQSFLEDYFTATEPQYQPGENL
Chain of Cyclin-dependent kinase 8 (P49336 whole entry): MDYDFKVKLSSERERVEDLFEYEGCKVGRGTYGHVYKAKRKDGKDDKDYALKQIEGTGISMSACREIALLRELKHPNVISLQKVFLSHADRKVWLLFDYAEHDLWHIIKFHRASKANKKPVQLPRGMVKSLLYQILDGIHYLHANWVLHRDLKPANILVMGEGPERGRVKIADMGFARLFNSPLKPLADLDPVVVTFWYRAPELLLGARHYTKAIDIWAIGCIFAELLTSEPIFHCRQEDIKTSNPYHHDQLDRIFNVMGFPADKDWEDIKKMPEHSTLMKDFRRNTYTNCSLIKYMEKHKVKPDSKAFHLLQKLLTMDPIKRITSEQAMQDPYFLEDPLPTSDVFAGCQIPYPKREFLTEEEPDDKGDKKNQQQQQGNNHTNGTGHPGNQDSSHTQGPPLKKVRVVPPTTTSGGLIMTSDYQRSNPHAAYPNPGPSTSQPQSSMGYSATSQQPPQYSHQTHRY
Chain of Dual specificity tyrosine-phosphorylation-regulated kinase 1B (Q9Y463 whole entry): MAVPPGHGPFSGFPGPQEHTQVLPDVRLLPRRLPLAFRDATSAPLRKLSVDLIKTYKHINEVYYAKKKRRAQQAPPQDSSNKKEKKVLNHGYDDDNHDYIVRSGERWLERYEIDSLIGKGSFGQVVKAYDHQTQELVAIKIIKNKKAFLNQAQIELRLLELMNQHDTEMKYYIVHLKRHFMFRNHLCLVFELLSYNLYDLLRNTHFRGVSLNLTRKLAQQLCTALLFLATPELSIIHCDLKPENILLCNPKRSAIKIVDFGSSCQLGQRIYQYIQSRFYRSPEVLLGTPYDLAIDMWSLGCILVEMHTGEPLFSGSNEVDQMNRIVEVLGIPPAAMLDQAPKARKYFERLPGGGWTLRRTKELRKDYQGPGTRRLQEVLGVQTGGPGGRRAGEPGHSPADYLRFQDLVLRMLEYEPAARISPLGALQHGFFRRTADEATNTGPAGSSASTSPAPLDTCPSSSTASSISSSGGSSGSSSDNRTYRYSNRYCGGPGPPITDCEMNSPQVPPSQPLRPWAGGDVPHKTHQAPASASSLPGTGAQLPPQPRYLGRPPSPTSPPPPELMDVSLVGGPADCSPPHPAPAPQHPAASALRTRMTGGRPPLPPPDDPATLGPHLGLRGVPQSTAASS

A word on the Ki: it is the equilibrium dissociation constant of an inhibitor or competing ligand from its target. Regarding `O=C(Nc1n[nH]c2ccc(-c3cn(Cc4ccccc4)nn3)cc12)c1cc(F)ccc1F`, the Ki in [1] was > 6.31 µM (inactive); in [2] it was > 3.98 µM (inactive); in assay [3], 0.501 µM (active); in assay [4], > 3.16 µM (inactive); in [5] it was 0.00501 µM (active); in [6], 3.16 µM (active). In addition, the Ki in assay [7] is > 3.98 µM (inactive); in assay [8], > 5.01 µM (inactive); in [9], > 6.31 µM (inactive); in assay [10] it was 0.01 µM (active).
As to `CS(=O)(=O)Nc1ccc(Nc2ccc3[nH]nc(N)c3c2)cc1`, the Ki in assay [1] is > 6.31 µM (inactive); in assay [2], 2.51 µM (active); in assay [3], > 5.01 µM (inactive); in assay [4], 2 µM (active); in assay [5] it was 1.26 µM (active); in assay [6], > 5.01 µM (inactive). Further, the Ki was 3.16 µM (active) in [7], > 5.01 µM (inactive) in assay [8], > 6.31 µM (inactive) in [9] and 0.501 µM (active) in assay [10].
As for `CS(=O)(=O)N(Cc1ccc2[nH]c(=O)c3cccn3c2c1)C1CC1`, the Ki was > 3.16 µM (inactive) in assay [1]; > 3.98 µM (inactive) in assay [2]; > 3.16 µM (inactive) in assay [3]; > 6.31 µM (inactive) in assay [4]; > 2.51 µM (inactive) in [5]; > 3.16 µM (inactive) in assay [6]. The Ki is > 2 µM (inactive) in [7], > 2.51 µM (inactive) in assay [8], > 3.16 µM (inactive) in assay [9] and > 6.31 µM (inactive) in assay [10].
